Results reported in US20230192677A1, “CYP11A1 INHIBITORS” (ORION CORPORATION, priority 2020, published 2023).

Experiments:
[1] = molecular target: recombinant human cytochrome P450 (CYP) CYP3A4 enzyme (Homo sapiens, UniProt P08684); experiment: Formation of reactive metabolites, trapping with GSH, KCN and SCA; conditions: test compound 10 μM, recombinant human CYP3A4, NADPH, 1 hour, pH 7.4
Method: Formation of reactive metabolites was studied as described in Grillo, M., Expert Opin. […] (2015), 11(8):1281-1302 by incubating test compounds with recombinant human cytochrome P450 (CYP) CYP3A4 enzyme in the presence of cofactor NADPH and trapping agents glutathione (GSH), potassium cyanide (KCN) and semicarbazide (SCA).
Compounds were dissolved in DMSO and diluted in phosphate buffer (pH 7.4) to obtain the final incubation concentration 1 or 10 μM. Compounds were incubated with one trapping agent (mixture of unlabelled and ^13C^15N-labelled trapper 1:1) at a time with cofactor NADPH (actual samples) and without NADPH (control samples). Incubation time was 1 hour. Samples at timepoint 0 min (before incubation) and 60 min (after incubation) were analysed using ultra high-pressure liquid chromatography (UHPLC) coupled with high-resolution mass spectrometry (HRMS). Tentative identification of trapped metabolites was based on accurate masses of protonated molecules and product ion spectra of found metabolites and accurate mass differences between unlabelled and labelled trapping agents reacted with reactive metabolites.
The metabolites were classified as “major” if the peak area after incubation was over 10% of parent peak area before incubation. If peak area was between 1% and 10%, metabolites were classified as “minor” and if peak area was less than 1%, metabolite was classified as “trace”.

CYP11A1 = molecular target: T1, CYP11A1 (Homo sapiens, UniProt P05108); experiment: CYP11A1 inhibition, isocaproic acid release assay (IARA) in H295R cells; format: cell-based; conditions: human H295R adrenocortical carcinoma cell line, three days, 3 nM [24,25-3H]-labelled cholesterol; read-out: IC50 on CYP11A1 inhibition (Group)
T1 construct: human H295R adrenocortical carcinoma cell line was used as source of enzyme; endogenous in cells; host or cells: H295R human adrenocortical carcinoma cells
T1 sequence (P05108 40-521): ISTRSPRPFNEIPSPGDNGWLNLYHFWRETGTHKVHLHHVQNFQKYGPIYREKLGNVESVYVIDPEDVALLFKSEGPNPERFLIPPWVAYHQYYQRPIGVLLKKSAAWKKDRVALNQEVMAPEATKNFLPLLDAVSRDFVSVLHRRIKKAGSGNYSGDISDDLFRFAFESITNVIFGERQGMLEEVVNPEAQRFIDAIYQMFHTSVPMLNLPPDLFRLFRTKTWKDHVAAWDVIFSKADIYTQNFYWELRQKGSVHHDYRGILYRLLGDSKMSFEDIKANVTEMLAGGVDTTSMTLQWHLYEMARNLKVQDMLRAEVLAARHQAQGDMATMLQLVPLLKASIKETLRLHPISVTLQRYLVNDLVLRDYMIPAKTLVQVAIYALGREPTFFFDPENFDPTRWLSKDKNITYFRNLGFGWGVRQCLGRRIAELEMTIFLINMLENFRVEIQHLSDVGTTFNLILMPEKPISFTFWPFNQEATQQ
Method: The ability of the test compounds to inhibit conversion of cholesterol to pregnenolone and isocaproic acid was measured by modification of isocaproic acid release assay (IARA) described by Ruangwises et al. (Biology of Reproduction 1991; 45(1):143-50) except that human H295R adrenocortical carcinoma cell line was used as source of enzyme and extraction was done with dextran-coated charcoal suspension (Isomaa, V. et al., Endocrinology 1982; 111(3):833-843). […] To determine the half maximal inhibitory concentration (IC50) of the test compounds on CYP11A1 inhibition, the cells were treated for three days with increasing concentrations of the test compounds in the presence of 3 nM [24,25-3H]-labelled cholesterol (American Radiolabelled Chemicals). The final DMSO concentration was 1%. Cell culture medium was extracted with dextran-coated charcoal suspension and the radiolabelled isocaproic acid was determined by mixing 100 μl of supernatant fraction in 200 μl of scintillation fluid (OptiPhase SuperMix, Perkin Elmer). Radioactivity was measured using a Microbeta scintillation counter (1450 MicroBeta Trilux, Wallac). All the test compounds were studied at 10 concentrations in duplicates.

recombinant human cytochrome P450 (CYP) CYP3A4 enzyme, sequence (P08684 whole entry): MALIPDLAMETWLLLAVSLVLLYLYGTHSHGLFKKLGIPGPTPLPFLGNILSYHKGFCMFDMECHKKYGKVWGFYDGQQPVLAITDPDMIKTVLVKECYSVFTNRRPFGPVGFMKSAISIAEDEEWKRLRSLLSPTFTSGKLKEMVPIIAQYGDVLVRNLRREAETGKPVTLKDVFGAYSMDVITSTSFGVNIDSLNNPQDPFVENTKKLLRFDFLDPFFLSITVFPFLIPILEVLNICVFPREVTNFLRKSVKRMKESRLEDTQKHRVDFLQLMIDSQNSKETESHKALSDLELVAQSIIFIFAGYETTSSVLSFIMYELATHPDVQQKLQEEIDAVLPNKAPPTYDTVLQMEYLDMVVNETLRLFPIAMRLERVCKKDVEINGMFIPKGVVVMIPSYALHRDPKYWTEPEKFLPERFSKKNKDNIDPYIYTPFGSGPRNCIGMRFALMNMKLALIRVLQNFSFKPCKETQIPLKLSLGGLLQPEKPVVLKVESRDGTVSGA

| Compound | IC50 (CYP11A1) [nM] | also measured |
| --- | --- | --- |
| C[C@H](c1cc(=O)c(OCC2CCN(S(C)(=O)=O)CC2)co1)N1Cc2ccccc2[C@H]2C[C@H]21 (relative stereo) [Compound 24b, 5-((1-(Methylsulfonyl)piperidin-4-yl)methoxy)-2-((R*)-1-((1aR*,7bR*)-1,1a,3,7b-tetrahydro-2H-cyclopropa[c]isoquinolin-2-yl)ethyl)-4H-pyran-4-one] |  | Number of CN trapped metabolites [1]: 2 (trace); Number of GSH trapped metabolites [1]: 0; Number of SCA trapped metabolites [1]: 0 |
| CS(=O)(=O)N1CCC(COc2coc(CN3Cc4ccc(-c5nnco5)cc4C3)cc2=O)CC1 [Compound 1, 2-((5-(1,3,4-Oxadiazol-2-yl)isoindolin-2-yl)methyl)-5-(((methylsulfonyl)piperidin-4-yl)methoxy)-4H-pyran-4-one] | 101 to 200 | Number of CN trapped metabolites [1]: 0; Number of GSH trapped metabolites [1]: 0; Number of SCA trapped metabolites [1]: 2 (trace) |
| CS(=O)(=O)N1CCC(COc2coc(CN3Cc4ccc(-c5cnco5)cc4C3)cc2=O)CC1 [Compound 2, 5-((1-(Methylsulfonyl)piperidin-4-yl)methoxy)-2-((5-(oxazol-5-yl)isoindolin-2-yl)methyl)-4H-pyran-4-one] | 101 to 200 | Number of CN trapped metabolites [1]: 0; Number of GSH trapped metabolites [1]: 0; Number of SCA trapped metabolites [1]: 3 (trace) |
| CC(c1cc(=O)c(OCC2CCN(S(C)(=O)=O)CC2)co1)N1Cc2ccc(-c3ncco3)cc2C1 (stereo not shown) [Compound 17b, 5-((1-(Methylsulfonyl)piperidin-4-yl)methoxy)-2-(1-(5-(oxazol-2-yl)isoindolin-2-yl)ethyl)-4H-pyran-4-one] |  | Number of CN trapped metabolites [1]: 0; Number of GSH trapped metabolites [1]: 0; Number of SCA trapped metabolites [1]: 1 (trace) |
| CS(=O)(=O)c1cc(CN2Cc3ccccc3C2)ccc1OCC1CCN(S(=O)(=O)C2COC2)CC1 [Compound 75, 2-(3-(Methylsulfonyl)-4-((1-(oxetan-3-ylsulfonyl)piperidin-4-yl)methoxy)-benzyl)isoindoline] | < 100 |  |
| CCS(=O)(=O)c1ccc(COc2ccc(CN3Cc4ccccc4C3)cc2S(C)(=O)=O)cc1 [Compound 76, 2-(4-((4-(Ethylsulfonyl)benzyl)oxy)-3-(methylsulfonyl)benzyl)isoindoline] | < 100 |  |
| CS(=O)(=O)c1cc(CN2Cc3ccccc3C2)ccc1OCc1ccc(S(=O)(=O)N2CC(O)C2)cc1 [Compound 77, 1-((4-((4-(Isoindolin-2-ylmethyl)-2-(methylsulfonyl)phenoxy)methyl)phenyl)-sulfonyl)azetidin-3-ol] | < 100 |  |
| CS(=O)(=O)c1cc(CN2Cc3ccccc3C2)ccc1OCc1ccc(C(=O)N=S(C)(C)=O)cc1 [Compound 78, N-(Dimethyl(oxo)-λ^6-sulfaneylidene)-4-((4-(isoindolin-2-ylmethyl)-2-(methyl-sulfonyl)phenoxy)methyl)benzamide] | < 100 |  |
| CN(C)C(=O)[C@H]1CC[C@H](COc2ccc(CN3Cc4ccccc4C3)cc2S(C)(=O)=O)CC1 [Compound 79, (1r,4r)-4-((4-(Isoindolin-2-ylmethyl)-2-(methylsulfonyl)phenoxy)methyl)-N,N-dimethylcyclohexane-1-carboxamide] | < 100 |  |
| CS(=O)(=O)c1cc(CN2Cc3ccccc3C2)ccc1OCC1CCC(C(=O)N2CCC2)CC1 (stereo not shown) [Compound 80, Azetidin-1-yl(4-((4-(isoindolin-2-ylmethyl)-2-(methylsulfonyl)phenoxy)-methyl)cyclohexyl)methanone] | 101 to 200 |  |
| CS(=O)(=O)c1ccc(COc2ccc(CN3Cc4ccccc4C3)cc2S(C)(=O)=O)cc1F [Compound 81, 2-(4-((3-Fluoro-4-(methylsulfonyl)benzyl)oxy)-3-(methylsulfonyl)benzyl)-isoindoline] | 101 to 200 |  |
| CS(=O)(=O)c1ccc(COc2ccc(CN3Cc4ccccc4C3)cc2S(C)(=O)=O)cc1 [Compound 82, 2-(3-(Methylsulfonyl)-4-((4-(methylsulfonyl)benzyl)oxy)benzyl)isoindoline] | < 100 |  |
| CS(=O)(=O)c1cc(CN2Cc3ccccc3C2)ccc1OCC1CCOCC1 [Compound 83, 2-(3-(Methylsulfonyl)-4-((tetrahydro-2H-pyran-4-yl)methoxy)benzyl)isoindoline] | 201 to 2000 |  |
| CS(=N)c1ccc(COc2ccc(CN3Cc4ccccc4C3)cc2S(C)(=O)=O)cc1 (stereo not shown) [Compound 84, (4-((4-(Isoindolin-2-ylmethyl)-2-(methylsulfonyl)phenoxy)methyl)phenyl)-(methyl)-λ^4-sulfanimine] | < 100 |  |
| CS(=N)(=O)c1ccc(COc2ccc(CN3Cc4ccc(C(F)(F)F)cc4C3)cc2S(C)(=O)=O)cc1 (stereo not shown) [Compound 85, Imino(methyl)(4-((2-(methylsulfonyl)-4-((5-(trifluoromethyl)isoindolin-2-yl)methyl)phenoxy)methyl)phenyl)-λ^6-sulfanone] | < 100 |  |
| CC(C)(O)c1ccc(COc2ccc(CN3Cc4ccccc4C3)cc2S(C)(=O)=O)cc1 [Compound 86, 2-(4-((4-(Isoindolin-2-ylmethyl)-2-(methylsulfonyl)phenoxy)methyl)phenyl)-propan-2-ol] | < 100 |  |
| CC(=O)N1CCC(COc2ccc(CN3Cc4ccccc4C3)cc2S(C)(=O)=O)CC1 [Compound 87, 1-(4-((4-(Isoindolin-2-ylmethyl)-2-(methylsulfonyl)phenoxy)methyl)piperidin-1-yl)ethan-1-one] | 201 to 2000 |  |
| CO/N=C(\C)c1ccc2c(c1)CN(Cc1cc(=O)c(OCC3CCN(S(C)(=O)=O)CC3)co1)C2 [Compound 91, (E)-2-((5-(1-(Methoxyimino)ethyl)isoindolin-2-yl)methyl)-5-((1-(methylsulfonyl)piperidin-4-yl)methoxy)-4H-pyran-4-one] | 101 to 200 |  |
| CC(O)c1ccc(COc2ccc(CN3Cc4ccccc4C3)cc2S(C)(=O)=O)cc1 (stereo not shown) [Compound 92b, 1-(4-((4-(Isoindolin-2-ylmethyl)-2-(methylsulfonyl)phenoxy)methyl)phenyl)-ethanol] | < 100 |  |
| CC(O)C1CCC(COc2ccc(CN3Cc4ccccc4C3)cc2S(C)(=O)=O)CC1 (stereo not shown) [Compound 94, 1-(4-((4-(Isoindolin-2-ylmethyl)-2-(methylsulfonyl)phenoxy)methyl)cyclohexyl)ethan-1-ol] | 201 to 2000 |  |
| CS(=O)(=O)c1cc(CN2Cc3ccccc3C2)ccc1OCc1ccc([S@](C)(=N)=O)cc1 [Compound 95, (R)-Imino(4-((4-(isoindolin-2-ylmethyl)-2-(methylsulfonyl)phenoxy)methyl)-phenyl)(methyl)-λ^6-sulfanone] | 101 to 200 |  |
| CS(=O)(=O)c1cc(CN2Cc3ccccc3C2)ccc1OCc1ccc([S@@](C)(=N)=O)cc1 [Compound 96, (S)-Imino(4-((4-(isoindolin-2-ylmethyl)-2-(methylsulfonyl)phenoxy)methyl)-phenyl)(methyl)-λ^6-sulfanone] | < 100 |  |
| CC[S@](=N)(=O)c1ccc(COc2ccc(CN3Cc4ccccc4C3)cc2S(C)(=O)=O)cc1 [Compound 97, (S)-Ethyl(imino)(4-((4-(isoindolin-2-ylmethyl)-2-(methylsulfonyl)phenoxy)-methyl)phenyl)-λ^6-sulfanone] | < 100 |  |
| CC[S@@](=N)(=O)c1ccc(COc2ccc(CN3Cc4ccccc4C3)cc2S(C)(=O)=O)cc1 [Compound 98, (R)-Ethyl(imino)(4-((4-(isoindolin-2-ylmethyl)-2-(methylsulfonyl)phenoxy)-methyl)phenyl)-λ^6-sulfanone] | < 100 |  |
| CS(=O)(=O)N1CCC(COc2coc(CN3Cc4ccccc4C4(CC4)C3)cc2=O)CC1 [Compound 103, 2-((1′H-Spiro[cyclopropane-1,4′-isoquinolin]-2′(3′H)-yl)methyl)-5-((1-(methyl-sulfonyl)piperidin-4-yl)methoxy)-4H-pyran-4-one] | 201 to 2000 |  |
| CC(C)(O)c1ccc(COc2coc(CN3Cc4ccccc4C4(CCCC4)C3)cc2=O)cc1 [Compound 104, 2-((1′H-Spiro[cyclopentane-1,4′-isoquinolin]-2′(3′H)-yl)methyl)-5-((4-(2-hydroxypropan-2-yl)benzyl)oxy)-4H-pyran-4-one] | 101 to 200 |  |
| CS(=O)(=O)c1cc(CN2Cc3cccc(F)c3C2)ccc1OCC1CCN(S(C)(=O)=O)CC1 [Compound 105, 4-Fluoro-2-(3-(methylsulfonyl)-4-((1-(methylsulfonyl)piperidin-4-yl)methoxy)-benzyl)isoindoline] | < 100 |  |
